Among the data in ChEMBL document CHEMBL5576135, “Discovery of Indolo[3,2-c]isoquinoline Derivatives as Novel Top1/2 Dual Inhibitors with Orally Efficacious Antitumor Activity and Low Toxicity” (J Med Chem, 2024) are inhibition, T/C and inhibition in vivo values, retold here.

Active and inactive are the calls of the source. The calls are words filed in the database; no cut-off is given here.

The target of assay [1] is T1, DNA topoisomerase 1 (Homo sapiens) (UniProt P11387).
T1 sequence (whole entry): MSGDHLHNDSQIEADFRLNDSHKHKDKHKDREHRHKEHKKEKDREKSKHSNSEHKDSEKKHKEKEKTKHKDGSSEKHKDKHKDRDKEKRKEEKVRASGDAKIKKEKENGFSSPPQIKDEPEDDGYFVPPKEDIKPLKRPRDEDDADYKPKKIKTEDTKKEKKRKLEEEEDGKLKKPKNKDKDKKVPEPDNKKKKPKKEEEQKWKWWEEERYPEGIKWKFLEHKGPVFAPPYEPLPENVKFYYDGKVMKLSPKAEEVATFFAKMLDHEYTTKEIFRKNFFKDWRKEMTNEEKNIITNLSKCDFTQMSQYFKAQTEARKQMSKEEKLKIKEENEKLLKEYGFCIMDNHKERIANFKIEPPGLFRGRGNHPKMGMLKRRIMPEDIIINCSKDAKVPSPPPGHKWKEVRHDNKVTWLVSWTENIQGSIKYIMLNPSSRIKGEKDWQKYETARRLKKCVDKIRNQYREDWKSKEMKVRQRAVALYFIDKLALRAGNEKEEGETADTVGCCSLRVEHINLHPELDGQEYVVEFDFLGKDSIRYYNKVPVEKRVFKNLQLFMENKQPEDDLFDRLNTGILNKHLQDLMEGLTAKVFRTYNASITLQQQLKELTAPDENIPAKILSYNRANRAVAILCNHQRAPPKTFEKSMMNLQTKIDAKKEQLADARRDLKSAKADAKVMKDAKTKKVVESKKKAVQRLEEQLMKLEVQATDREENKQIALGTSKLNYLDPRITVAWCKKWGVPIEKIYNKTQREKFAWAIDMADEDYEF
The assay can be described thus: Inhibition of Topoisomerase I (unknown origin) using pBR322 DNA as substrate at 2 uM incubated for 15 mins by EtBr staining based agarose gel electrophoresis method.

For assay [2], the system named is HCT-116. Kind of assay: Antitumor activity against human HCT-116 cells xenografted with BALB/c mouse assessed as tumor growth inhibition by measuring T/C ratio at 100 mg/kg,po administrated once daily for 21 days. The assay is classed as functional. Conditions: time 21 day. For orientation: A xenograft is tissue or cells of one species grown in another, often human tumour cells in immunodeficient mice.

The test system of the next assay is NCI-H446. The assay can be described thus: Antitumor activity against human NCI-H446 cells xenografted with BALB/c mouse assessed as tumor growth inhibition at 50 mg/kg,po administrated once daily for 21 days relative to control. The class given is functional. Particulars: NCI-H446, 504 h, time 21 day, read-out: TGI.
The target in assay [3] is T1, DNA topoisomerase 1 (Homo sapiens). The assay can be described thus: Inhibition of Topoisomerase I (unknown origin) using pBR322 DNA as substrate at 5 uM incubated for 15 mins by EtBr staining based agarose gel electrophoresis method.
Assay [4] has the same target. The assay can be described thus: Inhibition of Topoisomerase I (unknown origin) using pBR322 DNA as substrate at 1 uM incubated for 15 mins by EtBr staining based agarose gel electrophoresis method.
Assay [5] relates to HCT-116. Kind of assay: Antitumor activity against human HCT-116 cells xenografted with BALB/c mouse assessed as tumor growth inhibition at 50 mg/kg,po administrated once daily for 21 days relative to control. Conditions: HCT-116, 504 h, time 21 day, read-out: TGI. The assay is classed as functional.

On to `CN(C)CCCn1c2cc3c(cc2c2ncc4ccccc4c21)OCO3`, for which the inhibition result in assay [1], in assay [3] and in assay [4] was “Active” each time. For the same compound, the T/C (usually the result in the treated group divided by that in the control group, in per cent) in the assay with HCT-116 [2] was 18%. Moreover, the inhibition in vivo at 50 mg/kg stood at 49.2% with NCI-H446 and 40.8% in the assay with HCT-116 [5].
